Data as given in patent publication US20230085307A1, “PYRIDAZINONE COMPOUND AND HERBICIDE” (NISSAN CHEMICAL CORPORATION, priority 2019, published 2023).

Experiments:
[1] = system: southern crabgrass; assay: Test Example 5: herbicidal effect by foliage application, plastic box (Table 20, symbol F); format: in vivo, southern crabgrass (Digitaria ciliaris); settings: foliage application, three weeks after application
Method in brief: (§1)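 Plants sown in sterilized diluvial soil and grown 14 days in a greenhouse at 25° C to 30° C, then sprayed on the foliage with the compound's emulsion diluted in water to a predetermined herbicide amount. Injury to weeds and crops scored three weeks after application on a visual rating scale.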

[2] = system: Italian ryegrass; assay: Test Example 5: herbicidal effect by foliage application, plastic box (Table 20, symbol K); format: in vivo, Italian ryegrass (Lolium multiflorum); settings: foliage application, three weeks after application
Method in brief: as §1

[3] = system: blackgrass; assay: Test Example 5: herbicidal effect by foliage application, plastic box (Table 20, symbol J); format: in vivo, blackgrass (Alopecurus myosuroides); settings: foliage application, three weeks after application
Method in brief: as §1

[4] = system: wild oat; assay: Test Example 5: herbicidal effect by foliage application, plastic box (Table 20, symbol I); format: in vivo, wild oat (Avena fatua); settings: foliage application, three weeks after application
Method in brief: as §1

[5] = system: barnyard grass; assay: Test Example 5: herbicidal effect by foliage application, plastic box (Table 20, symbol H); format: in vivo, barnyard grass (Echinochloa crus-galli); settings: foliage application, three weeks after application
Method in brief: as §1

[6] = system: velvetleaf; assay: Test Example 5: herbicidal effect by foliage application, plastic box (Table 20, symbol M); format: in vivo, velvetleaf (Abutilon theophrasti); settings: foliage application, three weeks after application
Method in brief: as §1

[7] = system: green foxtail; assay: Test Example 5: herbicidal effect by foliage application, plastic box (Table 20, symbol G); format: in vivo, green foxtail (Setaria viridis); settings: foliage application, three weeks after application
Method in brief: as §1

[8] = system: false cleavers; assay: Test Example 5: herbicidal effect by foliage application, plastic box (Table 20, symbol Q); format: in vivo, false cleavers (Galium spurium); settings: foliage application, three weeks after application
Method in brief: as §1

[9] = system: lambsquarters; assay: Test Example 5: herbicidal effect by foliage application, plastic box (Table 20, symbol O); format: in vivo, lambsquarters (Chenopodium album); settings: foliage application, three weeks after application
Method in brief: as §1

[10] = system: chickweed; assay: Test Example 5: herbicidal effect by foliage application, plastic box (Table 20, symbol P); format: in vivo, common chickweed (Stellaria media); settings: foliage application, three weeks after application
Method in brief: as §1

[11] = system: barnyard grass; assay: Test Example 3: herbicidal effect by foliage application, Wagner pot (Table 18, symbol H); format: in vivo, barnyard grass (Echinochloa crus-galli)
Method in brief: (§2)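 Plants were sown in alluvial soil held under 0.1–0.5 cm standing water and grown 14 days in a greenhouse at 25–30 °C. An emulsifiable formulation, water-diluted to the set dose, was then sprayed onto the foliage, and effects were scored three weeks later using previously defined criteria.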

[12] = system: rice flat sedge; assay: Test Example 3: herbicidal effect by foliage application, Wagner pot (Table 18, symbol E); format: in vivo, rice flat sedge (Cyperus iria)
Method in brief: as §2

[13] = system: persian speedwell; assay: Test Example 5: herbicidal effect by foliage application, plastic box (Table 20, symbol R); format: in vivo, Persian speedwell (Veronica persica); settings: foliage application, three weeks after application
Method in brief: as §1

[14] = system: redroot pigweed; assay: Test Example 5: herbicidal effect by foliage application, plastic box (Table 20, symbol N); format: in vivo, redroot pigweed (Amaranthus retroflexus); settings: foliage application, three weeks after application
Method in brief: as §1

[15] = system: windgrass; assay: Test Example 5: herbicidal effect by foliage application, plastic box (Table 20, symbol L); format: in vivo, windgrass (Apera spica-venti); settings: foliage application, three weeks after application
Method in brief: as §1

[16] = system: Chinese sprangletop; assay: Test Example 3: herbicidal effect by foliage application, Wagner pot (Table 18, symbol D); format: in vivo, chinese sprangletop (Leptochloa chinensis)
Method in brief: as §2

Cc1nn(C)c(=O)c(-c2c(-c3ccc4c(c3)OCCO4)sc3ccccc23)c1OS(C)(=O)=O [1-094]
F: southern crabgrass, herbicidal effect ([1]; AAH 320 g/ha): 0 (Herbicidal rate of 5% or less (almost no effect))
K: Italian ryegrass, herbicidal effect ([2]; AAH 320 g/ha): 0 (Herbicidal rate of 5% or less (almost no effect))
J: blackgrass, herbicidal effect ([3]; AAH 320 g/ha): 0 (Herbicidal rate of 5% or less (almost no effect))
I: wild oat, herbicidal effect ([4]; AAH 320 g/ha): 0 (Herbicidal rate of 5% or less (almost no effect))
H: barnyard grass, herbicidal effect ([5]; AAH 320 g/ha): 0 (Herbicidal rate of 5% or less (almost no effect))
M: velvetleaf, herbicidal effect ([6]; AAH 320 g/ha): 3 (Herbicidal rate of 40% or more and less than 70%)
G: green foxtail, herbicidal effect ([7]; AAH 320 g/ha): 0 (Herbicidal rate of 5% or less (almost no effect))
Q: false cleavers, herbicidal effect ([8]; AAH 320 g/ha): 0 (Herbicidal rate of 5% or less (almost no effect))
O: lambsquarters, herbicidal effect ([9]; AAH 320 g/ha): 1 (Herbicidal rate of 5% or more and less than 20%)
P: chickweed, herbicidal effect ([10]; AAH 320 g/ha): 0 (Herbicidal rate of 5% or less (almost no effect))
herbicidal effect on H (barnyard grass), rating 0-5 ([11]; 320 g/ha): 3 (Herbicidal rate of 40% or more and less than 70%)
herbicidal effect on E (rice flat sedge), rating 0-5 ([12]; 320 g/ha): 3 (Herbicidal rate of 40% or more and less than 70%)
R: persian speedwell, herbicidal effect ([13]; AAH 320 g/ha): 4 (Herbicidal rate of 70% or more and less than 90%)
N: redroot pigweed, herbicidal effect ([14]; AAH 320 g/ha): 1 (Herbicidal rate of 5% or more and less than 20%)
L: windgrass, herbicidal effect ([15]; AAH 320 g/ha): 0 (Herbicidal rate of 5% or less (almost no effect))
herbicidal effect on D (Chinese sprangletop), rating 0-5 ([16]; 320 g/ha): 0 (Herbicidal rate of 5% or less (almost no effect))

CCCC(=O)Oc1c(C)nn(C)c(=O)c1-c1c(-c2cc3c(cc2Cl)OCCO3)sc2ccccc12 [1-096]
F: southern crabgrass, herbicidal effect ([1]; AAH 485 g/ha): 2 (Herbicidal rate of 20% or more and less than 40%)
K: Italian ryegrass, herbicidal effect ([2]; AAH 485 g/ha): 0 (Herbicidal rate of 5% or less (almost no effect))
J: blackgrass, herbicidal effect ([3]; AAH 485 g/ha): 0 (Herbicidal rate of 5% or less (almost no effect))
I: wild oat, herbicidal effect ([4]; AAH 485 g/ha): 0 (Herbicidal rate of 5% or less (almost no effect))
H: barnyard grass, herbicidal effect ([5]; AAH 485 g/ha): 3 (Herbicidal rate of 40% or more and less than 70%)
M: velvetleaf, herbicidal effect ([6]; AAH 485 g/ha): 1 (Herbicidal rate of 5% or more and less than 20%)
G: green foxtail, herbicidal effect ([7]; AAH 485 g/ha): 2 (Herbicidal rate of 20% or more and less than 40%)
Q: false cleavers, herbicidal effect ([8]; AAH 485 g/ha): 1 (Herbicidal rate of 5% or more and less than 20%)
O: lambsquarters, herbicidal effect ([9]; AAH 485 g/ha): 4 (Herbicidal rate of 70% or more and less than 90%)
P: chickweed, herbicidal effect ([10]; AAH 485 g/ha): 3 (Herbicidal rate of 40% or more and less than 70%)
herbicidal effect on H (barnyard grass), rating 0-5 ([11]; 485 g/ha): 5 (Herbicidal rate of 90% or more (almost completely withered))
herbicidal effect on E (rice flat sedge), rating 0-5 ([12]; 485 g/ha): 0 (Herbicidal rate of 5% or less (almost no effect))
R: persian speedwell, herbicidal effect ([13]; AAH 485 g/ha): 5 (Herbicidal rate of 90% or more (almost completely withered))
N: redroot pigweed, herbicidal effect ([14]; AAH 485 g/ha): 4 (Herbicidal rate of 70% or more and less than 90%)
L: windgrass, herbicidal effect ([15]; AAH 485 g/ha): 0 (Herbicidal rate of 5% or less (almost no effect))
herbicidal effect on D (Chinese sprangletop), rating 0-5 ([16]; 485 g/ha): 2 (Herbicidal rate of 20% or more and less than 40%)
